Results from patent US20260273028A1, “PEROXIDASE COMPOSITIONS CONTAINING IMPROVED ENHANCING AGENTS” (FLEN HEALTH PHARMA NV, priority 2022, published 2026).

Assays:
[1] = system: Pseudomonas aeruginosa ATCC®9027™; test: MBC determination, broth microdilution with CFU enumeration; type: cell-based; conditions: P. aeruginosa
Protocol: (§1) The minimal bactericidal concentration (MBC) is defined as the lowest concentration of an antimicrobial agent that results in a complete killing of the microbial population (determined via standard CFU enumeration techniques) after overnight incubation. This endpoint measurement is used, together with the MIC (see above), to define the microbial susceptibility towards an antimicrobial agent. Here, the antimicrobial agent is a combination of the natural enzymes GOX+LPO.
(§2) To determine the MBC of the described combinations, a classical broth microdilution assay combined with standard CFU enumeration techniques was used to determine the susceptibility of a series of microbes commonly detected in infected wounds, including (a) the Gram-positive bacterium Staphylococcus aureus ATCC® 6538™ (results shown below), (b) the Gram-negative bacterium Pseudomonas aeruginosa ATCC®9027™ (results shown below), (c) the yeast Candida albicans ATCC®10231™ (results shown below), and (d) the fungus Aspergillus niger ATCC®16404™ (results shown below). In brief, the broth microdilution assay was set up as previously described (see 2.1). After incubation, the MBC was determined by investigating the presence of viable microorganisms at the MIC and following higher concentrations (MICx2, MICx4, and so on) using standard CFU enumeration techniques. For each combination evaluated, this test was repeated at least 5 times. The collected data were further analyzed in MS Excel. Mean concentration data (expressed as log CFU/ml) were visualized in a table format in which the MBC was highlighted.

[2] = system: Aspergillus niger ATCC®16404™; test: as above; type: cell-based; conditions: A. niger; enhancer 1%-0.01%
Protocol: as §1, §2

[3] = exemplary values; cited from earlier work
[4] = system: Pseudomonas aeruginosa ATCC®9027™; test: MIC determination, broth microdilution, GOX+LPO with potentiator candidate; type: cell-based; conditions: P. aeruginosa
Protocol: (§3) The minimum inhibitory concentration (MIC) is defined as the lowest concentration of an antimicrobial agent that results in a complete inhibition of microbial growth (determined via visual evaluation or absorbance measurements) after overnight incubation. This endpoint measurement is used to define the microbial susceptibility towards an antimicrobial agent. Here, the antimicrobial agent is a combination of the natural enzymes GOX+LPO.
(§4) To determine the MIC of the described combinations, a classical broth microdilution assay was used to determine the susceptibility of a series of microbes commonly detected in infected wounds, including (a) the Gram-positive bacterium Staphylococcus aureus ATCC® 6538™ (results shown below), (b) the Gram-negative bacterium Pseudomonas aeruginosa ATCC®9027™ (results shown below), (c) the yeast Candida albicans ATCC®10231™ (results shown below), and (d) the fungus Aspergillus niger ATCC®16404™ (results shown below). In brief, a […] serial dilution of the enzymatic GOX+LPO solution was prepared in a transparent, flat-bottomed 96-well test plate with final concentrations ranging from 0.005 to 0.00000977% (v/v). To each well, a fixed volume of the enzymatic substrate containing 3,3% (w/v) glucose and 0,084% (w/v) potassium iodide, as well as the microbial inoculum with an OD600 of 0.1 was added. In the event the enzyme combination was evaluated in the presence of a potentiator candidate, the latter was added together with the enzymatic substrate in a final concentration ranging from 100 to 0,00125% (v/v). For each combination evaluated, a blank (no addition of microbial inoculum) was included. Positive (inoculum only) and negative (background solution only) were included to evaluate the performance of the test and to select the enzymatic GOX+LPO concentration at which no microbial growth is detected (i.e., absorbance equal to that of the background solution only). Then, the 96-well test plate was incubated for 24 hours at 37° C. (S. aureus, P. aeruginosa and C. albicans) or 25° C. (A. niger). After incubation, the absorbance of each well was measured using a plate spectrophotometer (Spectramax ID3, Molecular Devices). For each combination evaluated, this test was repeated at least 5 times. The collected data were further analyzed in MS Excel. Mean absorbance data were visualized in a table format in which the MIC was highlighted.

[5] = system: Staphylococcus aureus ATCC® 6538™; test: as above; type: cell-based; conditions: S. aureus
Protocol: as §3, §4

[6] = system: Aspergillus niger ATCC®16404™; test: as above; type: cell-based; conditions: A. niger; enhancer 1%-0.01%
Protocol: as §3, §4

[7] = system: Pseudomonas aeruginosa ATCC®9027™; test: Absolute microbial counts in function of enzyme solution concentration; type: cell-based
Excerpt: (§5) Absolute microbial counts in function of concentration of the antimicrobial agent tested are useful to monitor the bactericidal and fungicidal efficacy of that agent.
(§6) To determine the absolute number of live microorganisms in function of different enzyme solution concentrations tested, a classical broth microdilution assay combined with standard CFU enumeration techniques was used to determine the susceptibility of a series of microbes commonly detected in infected wounds, including (a) the Gram-positive bacterium Staphylococcus aureus ATCC® 6538™ (results shown below), (b) the Gram-negative bacterium Pseudomonas aeruginosa ATCC®9027™ (results shown below), (c) the yeast Candida albicans ATCC®10231™ (results shown below), and (d) the fungus Aspergillus niger ATCC®16404™ (results shown below). In brief, the broth microdilution assay was set up as previously described (see 2.1). After incubation, the absolute microbial count at the MIC and following higher concentrations (MICx2, MICx4, and so on) was determined using standard CFU enumeration techniques. For each combination evaluated, this test was repeated at least 5 times. The collected data were further analyzed in MS Excel and expressed as log CFU/ml. Mean results were plotted in function of enzyme solution concentration.

[8] = system: Aspergillus niger ATCC®16404™; test: as above; type: cell-based; conditions: enhancer 1-0.01%; 0.005%-0.000156% (v/v) GOX+LPO
Excerpt: as §5, §6

MIC: GOX+LPO enzyme solution needed to completely inhibit growth ([4]; enhancer 0,1%): 0.000625 % (v/v)
increase in MIC compared to reference ([4]; enhancer 0,1%): 2 ×
MIC: GOX+LPO enzyme solution needed to completely inhibit growth ([4]; enhancer 1%): 0.000156 % (v/v)
increase in MIC compared to reference ([4]; enhancer 1%): 8 ×
MIC: GOX+LPO enzyme solution needed to completely inhibit growth ([5]; enhancer 0.01%): 0.0000391 % (v/v)
increase in MIC compared to reference or guaiacol solution ([5]; enhancer 0.01%): 2 ×
MIC: GOX+LPO enzyme solution needed to completely inhibit growth ([5]; enhancer 2%): 0.0000195 % (v/v)
increase in MIC compared to reference or guaiacol solution ([5]; enhancer 2%): 4 ×
MIC: GOX+LPO enzyme solution needed to completely inhibit growth [6]: 0.000156 % (v/v)
increase in MIC compared to reference [6]: 2 ×
reduction in absolute P. aeruginosa counts compared to reference ([7]; enhancer 0,1%, 0,005%-0.000625% (v/v) GOX+LPO): stronger reduction
reduction in absolute P. aeruginosa counts compared to reference ([7]; enhancer 1%, 0,005%-0.000156% (v/v) GOX+LPO): stronger reduction
reduction in absolute A. niger counts compared to reference [8]: stronger reduction
Compound: C[C@@H](O)[C@H](N)C(=O)O [Threonine, threonine]
MBC: GOX+LPO enzyme solution needed ([1]; enhancer 0,1%): 0.000625 % (v/v)
increase in MBC compared to reference ([1]; enhancer 0,1%): 2 ×
MBC: GOX+LPO enzyme solution needed ([1]; enhancer 1%): 0.000156 % (v/v)
increase in MBC compared to reference ([1]; enhancer 1%): 8 ×
MBC: GOX+LPO enzyme solution needed [2]: 0.000156 % (v/v)
increase in MBC compared to reference [2]: 2 ×
LogP (octanol/water partition coefficient) [3]: LogP = −2.94
